The values below come from US20220233624A9, “ANTI-CANCER AND ANTI-PROLIFERATIVE COMPOSITIONS, AND METHODS FOR THEIR USE IN TREATING CANCER” (Natreon, Inc., priority 2020, published 2022).

The subject of the assay is AML (Acute myeloid leukemia) PDCs, M4 subtype (SB 33866). The assay is described as follows: Anti-proliferation assay on AML PDCs. In kind it is cell-based, human. To be noted: for inhibition at 10 µM: assay drug control @ 10 uM. The method, then: Anti-proliferation assays were performed on 6 types of primary patient-derived cancer cells (PDCs) from 6 different human donors, as described in Table 1:
Tests were performed in 384-well plates (24×16), using 1250 to 10,000 cells/well depending on the size and proliferation rate of different PDCs, in 30 ul of culture media (DMEM/F12 with serum and growth factors), with control wells set aside on each plate for media alone (4 wells), untreated PDCs (4 wells), and for PDCs treated with 10 ul of a known anti-cancer drug as a control. […] The outermost rows/columns of the plates were filled with PBS (pH 7.4) to avoid an edge-effect and were considered as blanks.
Standardized aqueous extracts identified in Table 2 were prepared in main stock solutions by dissolving 1 mg of extract in 1 ml PBS (phosphate-buffered saline, pH 7.4).
Anti-Proliferation Assay Protocol: 30 ul of cells were plated at the density of 1250 to 10,000 cells/well. The plate was incubated in a CO2 incubator for 0/N incubation for 24 hours. […] Final assay concentrations of made from stock solutions of standardized aqueous extracts identified in Table 2 were 100 ug/ml, 30 ug/ml, and 10 ug/ml. Since 10 ul extract was added to 30 ul of cell suspension, it diluted 4 times, so to maintain the final assay concentrations, 4× concentrated extract solutions (400 ug/ml, 120 ug/ml, and 40 ug/mo) were prepared from main stock (1 mg/ml) and added to the plate. In all experiments, 10 ul of 4 times concentrated stock (4×) was added to wells containing 30 ul of cell suspension to achieve final assay concentrations at 1X.
Once extracts were added to incubated cells and mixed gently, the plate was given a brief spin and incubated in the CO2 incubator for 72 hours. The plate was removed from the incubator and 10 ul of detection reagent (CellTiterGlo®; Promega Corporation, Wisconsin, USA) added to each well of the 384 well plate. The plate was incubated (10 min) and luminescence counts measured, with luminescence produced proportional to the number of viable (living, metabolically active) cells for each assay. The assay described above is a two-dimensional (2D) assay.
In this Example, AML drugs were used as disease specific controls.
As discussed above in Example I, 6 extracts (Ayuflex®, Capros®, Phyto-BGS®, PrimaVie®, Sensoril®, and Ayuric®) were tested on AML PDC-SB cells (33866, M-4 type, subject) at 3 concentrations: 100 ug/ml, 30 ug/ml, and 10 ug/ml.

Like-named read-outs stand apart in the source and are kept apart here.

In the case of `COc1cccc2c1C(=O)c1c(O)c3c(c(O)c1C2=O)C[C@@](O)(C(=O)CO)C[C@@H]3O[C@H]1C[C@H](N)[C@H](O)[C@H](C)O1` [Doxorubicin, doxorubicin], the “Inhibitory Concentration IC75” value (AML cells (M4)) came out at 260 nM. The inhibition at 10 µM amounted to 72% (Homo sapiens, read-out: % Inhibition Avg); 70% (Homo sapiens, read-out: % Inhibition n1); 73% (Homo sapiens, read-out: % Inhibition n2). Also, the inhibition at 3 µM reads like this: (Homo sapiens, drug alone 3 uM, read-out: inhibition of AML proliferation) 100%; (Homo sapiens, drug alone @ 3 uM, read-out: % Inhibition Avg) 100%; (Homo sapiens, drug alone @ 3 uM, read-out: % Inhibition n1) 100%; (Homo sapiens, drug alone @ 3 uM, read-out: % Inhibition n2) 100%; (Homo sapiens, drug alone @ 3 uM, read-out: % Inhibition n3) 100%. The IC50 (Homo sapiens, AML cells (M4), read-out: Inhibitory Concentration IC50) amounted to 103 nM.
